Laboratory results published in patent publication US10030047B2 (Hoffmann-La Roche Inc., priority 2015, dated 2018).

System: A. baumannii strain ATCC17978
Experiment: 50% growth inhibitory concentration (IC50) determination, Iso-Sensitest broth
Assay type: cell-based
Conditions: Acinetobacter baumannii; A. baumannii ATCC17978; Iso-Sensitest medium; OD 600 nm over 16 h; read-out: IC50 ATCC17978
Outline: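 Twofold dilution series (e.g. 50 to 0.097 μM final) in Iso-Sensitest broth, inoculum ~5×10^(5) CFU/ml, incubated at 35±2° C. OD600 read every 20 min over 16 h; IC50 and IC90 calculated during logarithmic growth.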

| SMILES | IC50 |
| --- | --- |
| CN1Cc2ccccc2Sc2ccccc2CNC(=O)[C@H](Cc2c[nH]c3ccccc23)NC(=O)[C@H](CCCN)NC(=O)[C@@H]1Cc1ccc(-c2ccccc2)cc1 [Example 117, (12S,15S,18S)-15-(3-Amino-propyl)-18-biphenyl-4-ylmethyl-12-(1H-indol-3-ylmethyl)-19-methyl-2-thia-10,13,16,19-tetraaza-tricyclo[19.4.0.0*3,8*]pentacosa-1(25),3,5,7,21,23-hexaene-11,14,17-trione] | 8100 nM |
| COc1cc(-c2ncc(Cl)c3c2Sc2ccccc2CN[C@@H](CCCN)C(=O)N[C@@H](CCCCN)C(=O)N(C)[C@@H](Cc2c[nH]c4ccccc24)C(=O)NC3)ccn1 [Example 196] | 100 nM |
| CN1C(=O)[C@H](CCCCN)NC(=O)[C@H](CCCN)NCc2cccnc2Sc2ccnc(-c3cccnc3)c2CNC(=O)[C@@H]1Cc1c[nH]c2ccccc12 [Example 238, (7S,10S,13S)-13-((1H-Indol-3-yl)methyl)-10-(4-aminobutyl)-7-(3-aminopropyl)-12-methyl-17-(pyridin-3-yl)-6,7,9,10,12,13,15,16-octahydrodipyrido[2,3-b:3′,4′-p][1,5,8,11,14]thiatetraazacycloheptadecine-8,11,14(5H)-trione] | 5600 nM |
| CN1C(=O)[C@H](CCCCN)NC(=O)[C@H](CCCN)NCc2cccnc2Sc2c(Cl)ccc(-c3ccc(OCC(O)CO)cc3)c2CNC(=O)[C@@H]1Cc1c[nH]c2ccccc12 (stereo partly drawn) [Example 240, (11S,14S,17S)-14-(4-Amino-butyl)-11-(3-amino-propyl)-25-chloro-22-[4-(2,3-dihydroxy-propoxy)-phenyl]-17-(1H-indol-3-ylmethyl)-16-methyl-2-thia-4,10,13,16,19-pentaaza-tricyclo[19.4.0.0*3,8*]pentacosa-1(25),3(8),4,6,21,23-hexaene-12,15,18-trione] | < 100 nM |
| CN(C)c1nccc2c1CNC(=O)[C@H](Cc1c[nH]c3ccccc13)N(C)C(=O)[C@H](CCCCN)NC(=O)[C@H](CCCN)NCc1cccnc1S2 [Example 237, (7S,10S,13S)-13-((1H-Indol-3-yl)methyl)-10-(4-aminobutyl)-7-(3-aminopropyl)-17-(dimethylamino)-12-methyl-6,7,9,10,12,13,15,16-octahydrodipyrido [2,3-b:3′,4′-p][1,5,8,11,14]thiatetraazacycloheptadecine-8,11,14(5H)-trione] | 800 nM |
| CN1C(=O)[C@H](CCCCN)NC(=O)[C@H](CCCN)NCc2cccnc2Sc2c(Cl)ccc(-c3ccc(OC4CCNCC4)cc3)c2CNC(=O)[C@@H]1Cc1c[nH]c2ccccc12 [Example 242, (11S,14S,17S)-14-(4-Amino-butyl)-11-(3-amino-propyl)-25-chloro-17-(1H-indol-3-ylmethyl)-16-methyl-22-[4-(piperidin-4-yloxy)-phenyl]-2-thia-4,10,13,16,19-pentaaza-tricyclo[19.4.0.0*3,8*]pentacosa-1(25),3(8),4,6,21,23-hexaene-12,15,18-trione] | < 200 nM |
| CN1C(=O)[C@H](CCCCN)NC(=O)[C@H](CCCN)NCc2ccccc2Sc2c(N3CCOCC3)ncc(Cl)c2CNC(=O)[C@@H]1Cc1c[nH]c2ccccc12 [Example 201] | 400 nM |
| CN1C(=O)[C@H](CCCCN)NC(=O)[C@H](CCC(N)=O)NCc2ccccc2Sc2c(cc(-c3ccccc3)cc2C(F)(F)F)CNC(=O)[C@@H]1Cc1c[nH]c2ccccc12 [Example 155, 3-[(11S,14S,17S)-14-(4-Amino-butyl)-17-(1H-indol-3-ylmethyl)-16-methyl-12,15,18-trioxo-23-phenyl-25-trifluoromethyl-2-thia-10,13,16,19-tetraaza-tricyclo[19.4.0.0*3,8*]pentacosa-1(25),3,5,7,21,23-hexaen-11-yl]-propionamide] | 2700 nM |
| CN1C(=O)[C@H](CCCCN)NC(=O)[C@H](CCCN)NCc2ccccc2Sc2c(Cl)cncc2CNC(=O)[C@@H]1Cc1c[nH]c2ccccc12 [Example 158] | < 390 nM |
| CN1C(=O)[C@H](CCCCN)NC(=O)[C@H](CCCN)NCc2cccnc2Sc2c(Cl)ccc(-c3ccc(C(=O)NCCO)cc3)c2CNC(=O)[C@@H]1Cc1c[nH]c2ccccc12 [Example 247, 4-[(11S,14S,17S)-14-(4-Amino-butyl)-11-(3-amino-propyl)-25-chloro-17-(1H-indol-3-ylmethyl)-16-methyl-12,15,18-trioxo-2-thia-4,10,13,16,19-pentaaza-tricyclo[19.4.0.0*3,8*]pentacosa-1(25),3(8),4,6,21,23-hexaen-22-yl]-N-(2-hydroxy-ethyl)-benzamide] | < 100 nM |
| CN1C(=O)[C@H](CCCCN)NC(=O)[C@H](CCCN)NCc2cccnc2Sc2c(Cl)ccc(-c3cccc(CCN)c3)c2CNC(=O)[C@@H]1Cc1c[nH]c2ccccc12 [Example 244, (11S,14S,17S)-14-(4-Amino-butyl)-22-[3-(2-amino-ethyl)-phenyl]-11-(3-amino-propyl)-25-chloro-17-(1H-indol-3-ylmethyl)-16-methyl-2-thia-4,10,13,16,19-pentaaza-tricyclo[19.4.0.0*3,8*]pentacosa-1(25),3(8),4,6,21,23-hexaene-12,15,18-trione] | < 400 nM |
| CN1C(=O)[C@H](CCCCN)NC(=O)[C@H](CCCN)NCc2cccnc2Sc2c(Cl)ccc(-c3ccc(C4CCNCC4)cc3)c2CNC(=O)[C@@H]1Cc1c[nH]c2ccccc12 [Example 250, (11S,14S,17S)-14-(4-Amino-butyl)-1-(3-amino-propyl)-25-chloro-17-(1H-indol-3-ylmethyl)-16-methyl-22-(4-piperidin-4-yl-phenyl)-2-thia-4,10,13,16,19-pentaaza-tricyclo[19.4.0.0*3,8*]pentacosa-1(25),3(8),4,6,21,23-hexaene-12,15,18-trione] | < 100 nM |
| CN1C(=O)[C@H](CCCCN)NC(=O)[C@H](CCCN)NCc2cccnc2Sc2ccc(Br)nc2CNC(=O)[C@@H]1Cc1c[nH]c2ccccc12 [Example 197, (7S,10S,13S)-13-((1H-Indol-3-yl)methyl)-10-(4-aminobutyl)-7-(3-aminopropyl)-18-bromo-12-methyl-6,7,9,10,12,13,15,16-octahydrodipyrido[2,3-b:2′,3′-p][1,5,8,11,14]thiatetraazacycloheptadecine-8,11,14(5H)-trione] | 200 nM |
| CN1C(=O)[C@H](CCCCN)NC(=O)[C@H](CCCN)NCc2cccnc2Sc2c(Cl)ccc(C(F)(F)F)c2CNC(=O)[C@@H]1Cc1ccc2ccccc2n1 [Example 132, (11S,14S,17S)-14-(4-Amino-butyl)-11-(3-amino-propyl)-25-chloro-16-methyl-17-quinolin-2-ylmethyl-22-trifluoromethyl-2-thia-4,10,13,16,19-pentaaza-tricyclo[19.4.0.0*3,8*]pentacosa-1(25),3,5,7,21,23-hexaene-12,15,18-trione] | 17000 nM |
